According to patent US20100068793A1, “DEVICES AND METHODS FOR PRODUCTION OF CELL AGGREGATES” (priority 2007, published 2010):
Entries after “also recorded” stand apart in the source; their conditions may differ.

Columns and labels:
hESC [1] = assay: Forced aggregation of hESC with or without ROCK inhibitor Y-27632; type: cell-based, human
Experimental: d) form aggregates in the presence of 10 μM Y27632 5. Suspend cells in X-vivo10 or other medium of interest at a concentration appropriate to the desired EB size and plate format (e.g. to form aggregates from 10,000 cells in 100 μL medium each in 96-well plates, suspend 1 million cells in 10 mL; for aggregates from 2,000 cells in 25 μL medium each in 384-well plates, suspend 0.8 million cells in 10 mL. NB multichannel pipettes or automated liquid handling systems often require a minimum “dead volume”, thus it may be necessary to make 10-20% additional volume of suspension depending on the specifics of the equipment employed. 6. Dispense the cell suspension into the well plates prepared in step 2. 7. Centrifuge for 5 minutes at 240×g 8. Incubate overnight at 37 degrees, 5% CO2 in a standard tissue culture incubator. 9. Recover EBs by pipetting using large-bore or cut-off pipette tips or by inverted centrifugation in the device described and illustrated in FIG. 1 or 2 for 1 minute at 20×g hESC were cultured on Matrigel in conditioned medium or with 48 hours of pre-differentiation in serum-containing medium, and were subjected to the forced aggregation protocol at 2,000 cells per well with or without addition of 10 μM of the ROCK inhibitor Y-27632. […] In the absence of both, no aggregates were formed (N.D.—size not determined). […]

hESC [2] = assay: Aggregate formation from hESC cultured on Matrigel after BMP pre-differentiation; type: cell-based, human; conditions: 50 ng/mL BMP4 pre-differentiation, control without BMP4 formed no aggregates
Experimental: Prepare a single-cell suspension by treating the hESC culture with TrypIE for 5 minutes, and washing the cells off with X-Vivo10
Count cells, spin down and re-suspend to 1 million cells/mL in X-Vivo or other medium of interest. Cells may all derive from a single culture, or cells from different sources may be combined.

| Molecule | aggregate size and symmetry (hESC [1]; 10 μM Y-27632, hESC cultured on Matrigel, 2,000 cells per well, with or without 48 hours pre-differentiation in serum-containing medium) | aggregate formation / stability (SISO-aggregates, cross-sectional area) (hESC [1]; 10 μM Y-27632 added to cell suspension immediately prior to dispensing, hESC on Matrigel in MEF-conditioned medium, with or without 48 hours predifferentiation in 20% serum) | stable aggregate formation after BMP4 pre-differentiation (hESC [2]) |
| --- | --- | --- | --- |
| C[C@@H](N)[C@H]1CC[C@H](C(=O)Nc2ccncc2)CC1 [Y-27632] | size and symmetry of aggregates are improved; also recorded: substantially increased aggregate size and symmetry | sizeable aggregates resulted |  |
| BMP4: bone morphogenetic protein growth factor used for pre-differentiation |  |  | Aggregates formed from the pre-differentiated population |
